Experimental data: paper PMC12281475, “Mediator Kinase Inhibitor Selectivity and Activity in Colorectal Cancer” (ACS Chemical Biology, 2025)

Key:
Type in all cases: biochemical
CDK9_CycK = biological target: T1, CDK9_CycK (Homo sapiens, UniProt P50750); test: Radiometric protein kinase assay (33PanQinase), CDK9_CycK
T1 construct: purchased Reaction Biology

CDK19_CycC = biological target: T2, CDK19_CycC (Homo sapiens, UniProt Q9BWU1); test: Radiometric protein kinase assay (33PanQinase), CDK19_CycC; conditions: slope of the IC50 fit
T2 construct: purchased Reaction Biology

CDK4_CycD3 = biological target: T3, CDK4_CycD3 (Homo sapiens, UniProt P11802); test: Radiometric protein kinase assay (33PanQinase), CDK4_CycD3
T3 construct: purchased Reaction Biology

CDK5_p35NCK = biological target: T4, CDK5_p35NCK (Homo sapiens, UniProt Q00535); test: Radiometric protein kinase assay (33PanQinase), CDK5_p35NCK
T4 construct: purchased Reaction Biology

CDK8_CycC = biological target: T5, CDK8_CycC (Homo sapiens, UniProt P49336); test: Radiometric protein kinase assay (33PanQinase), CDK8_CycC
T5 construct: purchased Reaction Biology

CDK4_CycD1 = biological target: T6, CDK4_CycD1 (Homo sapiens, UniProt P11802); test: Radiometric protein kinase assay (33PanQinase), CDK4_CycD1
T6 construct: purchased Reaction Biology

CDK15_CycA2 = biological target: T7, CDK15_CycA2 (Homo sapiens, UniProt Q96Q40); test: Radiometric protein kinase assay (33PanQinase), CDK15_CycA2
T7 construct: purchased Reaction Biology

CDK18_CycY = CDK18_CycY (Homo sapiens, UniProt Q07002); test: Radiometric protein kinase assay (33PanQinase), CDK18_CycY
CDK3_CycC = biological target: T8, CDK3_CycC (Homo sapiens, UniProt Q00526); test: Radiometric protein kinase assay (33PanQinase), CDK3_CycC; conditions: slope of the IC50 fit
T8 construct: purchased Reaction Biology

CDK12_CycK = biological target: T9, CDK12_CycK (Homo sapiens, UniProt Q9NYV4); test: Radiometric protein kinase assay (33PanQinase), CDK12_CycK; conditions: slope of the IC50 fit
T9 construct: purchased Reaction Biology

CDK10_CycQ = CDK10_CycQ (Homo sapiens, UniProt Q15131); test: Radiometric protein kinase assay (33PanQinase), CDK10_CycQ
CDK17_p35NCK = CDK17_p35NCK (Homo sapiens, UniProt Q00537); test: Radiometric protein kinase assay (33PanQinase), CDK17_p35NCK; conditions: slope of the IC50 fit
CDK3_CycE1 = biological target: T10, CDK3_CycE1 (Homo sapiens, UniProt Q00526); test: Radiometric protein kinase assay (33PanQinase), CDK3_CycE1
T10 construct: purchased Reaction Biology

CDK13_CycK = biological target: T11, CDK13_CycK (Homo sapiens, UniProt Q14004); test: Radiometric protein kinase assay (33PanQinase), CDK13_CycK; conditions: slope of the IC50 fit
T11 construct: purchased Reaction Biology

CDK9_CycT1 = biological target: T12, CDK9_CycT1 (Homo sapiens, UniProt P50750); test: Radiometric protein kinase assay (33PanQinase), CDK9_CycT1
T12 construct: purchased Reaction Biology

CDK20_CycH = CDK20_CycH (Homo sapiens, UniProt Q8IZL9); test: Radiometric protein kinase assay (33PanQinase), CDK20_CycH
CDK14_CycY = CDK14_CycY (Homo sapiens, UniProt O94921); test: Radiometric protein kinase assay (33PanQinase), CDK14_CycY
CDK2_CycA2 = biological target: T13, CDK2_CycA2 (Homo sapiens, UniProt P24941); test: Radiometric protein kinase assay (33PanQinase), CDK2_CycA2
T13 construct: purchased Reaction Biology

CDK16_CycY = biological target: T14, CDK16_CycY (Homo sapiens, UniProt Q00536); test: Radiometric protein kinase assay (33PanQinase), CDK16_CycY
T14 construct: purchased Reaction Biology

CDK7_CycH_MAT1 = biological target: T15, CDK7_CycH_MAT1 (Homo sapiens, UniProt P50613); test: Radiometric protein kinase assay (33PanQinase), CDK7_CycH_MAT1
T15 construct: purchased Reaction Biology

CDK1_CycA2 = biological target: T16, CDK1_CycA2 (Homo sapiens, UniProt P06493); test: Radiometric protein kinase assay (33PanQinase), CDK1_CycA2; conditions: slope of the IC50 fit
T16 construct: purchased Reaction Biology

CDK1_CycB1 = biological target: T17, CDK1_CycB1 (Homo sapiens, UniProt P06493); test: Radiometric protein kinase assay (33PanQinase), CDK1_CycB1; conditions: slope of the IC50 fit
T17 construct: purchased Reaction Biology

CDK6_CycD2 = biological target: T18, CDK6_CycD2 (Homo sapiens, UniProt Q00534); test: Radiometric protein kinase assay (33PanQinase), CDK6_CycD2
T18 construct: purchased Reaction Biology

CDK20_CycT1 = CDK20_CycT1 (Homo sapiens, UniProt Q8IZL9); test: Radiometric protein kinase assay (33PanQinase), CDK20_CycT1
CDK6_CycD3 = biological target: T19, CDK6_CycD3 (Homo sapiens, UniProt Q00534); test: Radiometric protein kinase assay (33PanQinase), CDK6_CycD3
T19 construct: purchased Reaction Biology

CDK5_p25NCK = biological target: T20, CDK5_p25NCK (Homo sapiens, UniProt Q00535); test: Radiometric protein kinase assay (33PanQinase), CDK5_p25NCK
T20 construct: purchased Reaction Biology

CDK11B 357-795_CycK = CDK11B 357-795_CycK (Homo sapiens, UniProt P21127); test: Radiometric protein kinase assay (33PanQinase), CDK11B 357-795_CycK
CDK2_CycD1 = biological target: T21, CDK2_CycD1 (Homo sapiens, UniProt P24941); test: Radiometric protein kinase assay (33PanQinase), CDK2_CycD1; conditions: slope of the IC50 fit
T21 construct: purchased Reaction Biology

CDK1_CycE1 = biological target: T22, CDK1_CycE1 (Homo sapiens, UniProt P06493); test: Radiometric protein kinase assay (33PanQinase), CDK1_CycE1
T22 construct: purchased Reaction Biology

CDK2_CycE1 = biological target: T23, CDK2_CycE1 (Homo sapiens, UniProt P24941); test: Radiometric protein kinase assay (33PanQinase), CDK2_CycE1
T23 construct: purchased Reaction Biology

CDK4_CycD2 = biological target: T24, CDK4_CycD2 (Homo sapiens, UniProt P11802); test: Radiometric protein kinase assay (33PanQinase), CDK4_CycD2
T24 construct: purchased Reaction Biology

CDK6_CycD1 = biological target: T25, CDK6_CycD1 (Homo sapiens, UniProt Q00534); test: Radiometric protein kinase assay (33PanQinase), CDK6_CycD1
T25 construct: purchased Reaction Biology

[1] = highest assay concentration 1.00E-05 M
[2] = highest assay concentration 1.00E-05 M, read-out: IC50

Sequence of CDK10_CycQ (Q15131 whole entry): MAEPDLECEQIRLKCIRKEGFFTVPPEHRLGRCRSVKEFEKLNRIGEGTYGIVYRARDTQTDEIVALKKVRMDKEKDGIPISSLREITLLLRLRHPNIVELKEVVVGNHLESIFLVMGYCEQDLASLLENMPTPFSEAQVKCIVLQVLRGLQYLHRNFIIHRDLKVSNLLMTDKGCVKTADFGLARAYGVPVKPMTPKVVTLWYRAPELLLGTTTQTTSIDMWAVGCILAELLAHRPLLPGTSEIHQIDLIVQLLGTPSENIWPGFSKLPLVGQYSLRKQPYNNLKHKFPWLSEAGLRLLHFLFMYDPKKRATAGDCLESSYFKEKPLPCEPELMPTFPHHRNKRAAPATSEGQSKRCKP
Sequence of CDK10_CycQ (Q8N1B3 whole entry partner): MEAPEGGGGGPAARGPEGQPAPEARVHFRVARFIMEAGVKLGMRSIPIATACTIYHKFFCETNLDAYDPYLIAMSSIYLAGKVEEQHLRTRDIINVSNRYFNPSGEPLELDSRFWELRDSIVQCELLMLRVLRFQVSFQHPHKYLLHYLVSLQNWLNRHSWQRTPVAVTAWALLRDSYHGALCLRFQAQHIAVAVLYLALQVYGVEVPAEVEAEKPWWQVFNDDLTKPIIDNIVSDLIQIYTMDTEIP
Sequence of CDK18_CycY (Q07002 whole entry): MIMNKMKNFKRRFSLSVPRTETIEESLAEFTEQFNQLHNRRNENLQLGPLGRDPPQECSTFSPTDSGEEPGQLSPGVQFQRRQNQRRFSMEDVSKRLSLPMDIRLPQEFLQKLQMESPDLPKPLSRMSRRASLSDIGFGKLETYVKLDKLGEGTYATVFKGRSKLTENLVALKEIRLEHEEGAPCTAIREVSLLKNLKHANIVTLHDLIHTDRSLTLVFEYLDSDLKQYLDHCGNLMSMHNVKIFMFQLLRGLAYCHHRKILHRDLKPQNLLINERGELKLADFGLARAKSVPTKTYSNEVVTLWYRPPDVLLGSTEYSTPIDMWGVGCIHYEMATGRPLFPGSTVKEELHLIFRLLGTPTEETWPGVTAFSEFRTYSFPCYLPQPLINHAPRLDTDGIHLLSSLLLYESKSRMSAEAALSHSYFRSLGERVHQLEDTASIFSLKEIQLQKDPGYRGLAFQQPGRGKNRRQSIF
Sequence of CDK18_CycY (Q8ND76 whole entry partner): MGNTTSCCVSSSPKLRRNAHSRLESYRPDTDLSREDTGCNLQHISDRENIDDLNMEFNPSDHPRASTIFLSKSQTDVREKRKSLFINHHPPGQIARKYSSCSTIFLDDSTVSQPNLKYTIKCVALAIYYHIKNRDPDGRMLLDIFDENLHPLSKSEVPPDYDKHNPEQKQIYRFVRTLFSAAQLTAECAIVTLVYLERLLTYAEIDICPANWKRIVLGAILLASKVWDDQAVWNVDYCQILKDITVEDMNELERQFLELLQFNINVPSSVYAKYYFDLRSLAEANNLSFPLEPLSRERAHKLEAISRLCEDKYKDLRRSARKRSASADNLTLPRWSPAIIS
T20 sequence (Q00535 whole entry): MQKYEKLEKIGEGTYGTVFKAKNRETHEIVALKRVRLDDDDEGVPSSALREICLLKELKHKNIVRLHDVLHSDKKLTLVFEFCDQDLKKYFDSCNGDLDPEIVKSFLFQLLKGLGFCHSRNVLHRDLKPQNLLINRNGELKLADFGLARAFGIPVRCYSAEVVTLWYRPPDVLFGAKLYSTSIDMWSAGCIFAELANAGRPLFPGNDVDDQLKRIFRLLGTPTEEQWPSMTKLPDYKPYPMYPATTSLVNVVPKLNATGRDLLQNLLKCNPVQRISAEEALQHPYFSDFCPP
T20 sequence (Q15078 99-307 partner limits assumed): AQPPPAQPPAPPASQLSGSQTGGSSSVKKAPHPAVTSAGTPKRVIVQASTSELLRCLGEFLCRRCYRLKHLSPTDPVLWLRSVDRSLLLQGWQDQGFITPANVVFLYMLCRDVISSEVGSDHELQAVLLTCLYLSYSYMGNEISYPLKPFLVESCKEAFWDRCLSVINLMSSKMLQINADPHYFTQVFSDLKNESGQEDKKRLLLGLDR
T4 sequence (Q00535 whole entry): as the sequence (Q00535 whole entry) above
T4 sequence (Q15078 whole entry partner): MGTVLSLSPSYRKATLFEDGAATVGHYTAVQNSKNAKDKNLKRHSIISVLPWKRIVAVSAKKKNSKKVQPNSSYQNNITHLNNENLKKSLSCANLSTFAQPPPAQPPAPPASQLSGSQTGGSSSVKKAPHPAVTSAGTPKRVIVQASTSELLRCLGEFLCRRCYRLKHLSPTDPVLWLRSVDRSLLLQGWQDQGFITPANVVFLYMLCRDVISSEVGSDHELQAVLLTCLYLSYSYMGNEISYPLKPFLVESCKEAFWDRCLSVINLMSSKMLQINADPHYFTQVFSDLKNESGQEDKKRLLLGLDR
Sequence of CDK14_CycY (O94921 whole entry): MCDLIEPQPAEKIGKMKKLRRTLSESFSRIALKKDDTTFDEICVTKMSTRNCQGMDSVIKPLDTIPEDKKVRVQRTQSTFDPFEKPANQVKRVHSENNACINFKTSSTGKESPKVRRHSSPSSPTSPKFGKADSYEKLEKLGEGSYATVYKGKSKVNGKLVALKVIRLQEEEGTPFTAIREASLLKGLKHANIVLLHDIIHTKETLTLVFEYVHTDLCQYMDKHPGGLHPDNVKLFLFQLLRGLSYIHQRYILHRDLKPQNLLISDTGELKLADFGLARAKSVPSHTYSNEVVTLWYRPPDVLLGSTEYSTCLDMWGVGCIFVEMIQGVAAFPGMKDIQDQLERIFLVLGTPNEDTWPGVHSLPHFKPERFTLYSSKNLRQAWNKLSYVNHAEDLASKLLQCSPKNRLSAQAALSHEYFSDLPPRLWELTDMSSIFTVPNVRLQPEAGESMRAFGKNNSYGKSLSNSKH
Sequence of CDK14_CycY (Q8ND76 whole entry partner): as the sequence (Q8ND76 whole entry partner) above
Sequence of CDK20_CycH (Q8IZL9 whole entry): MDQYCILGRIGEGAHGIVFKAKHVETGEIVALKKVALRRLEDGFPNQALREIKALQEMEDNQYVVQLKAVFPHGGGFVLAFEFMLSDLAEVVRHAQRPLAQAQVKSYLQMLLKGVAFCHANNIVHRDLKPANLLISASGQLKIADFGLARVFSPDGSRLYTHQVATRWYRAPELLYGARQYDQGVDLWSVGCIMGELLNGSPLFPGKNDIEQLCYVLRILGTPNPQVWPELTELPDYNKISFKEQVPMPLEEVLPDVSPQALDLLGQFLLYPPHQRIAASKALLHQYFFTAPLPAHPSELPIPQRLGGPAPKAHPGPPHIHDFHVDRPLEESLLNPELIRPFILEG
Sequence of CDK20_CycT1 (Q8IZL9 whole entry): as above
T7 sequence (Q96Q40 whole entry): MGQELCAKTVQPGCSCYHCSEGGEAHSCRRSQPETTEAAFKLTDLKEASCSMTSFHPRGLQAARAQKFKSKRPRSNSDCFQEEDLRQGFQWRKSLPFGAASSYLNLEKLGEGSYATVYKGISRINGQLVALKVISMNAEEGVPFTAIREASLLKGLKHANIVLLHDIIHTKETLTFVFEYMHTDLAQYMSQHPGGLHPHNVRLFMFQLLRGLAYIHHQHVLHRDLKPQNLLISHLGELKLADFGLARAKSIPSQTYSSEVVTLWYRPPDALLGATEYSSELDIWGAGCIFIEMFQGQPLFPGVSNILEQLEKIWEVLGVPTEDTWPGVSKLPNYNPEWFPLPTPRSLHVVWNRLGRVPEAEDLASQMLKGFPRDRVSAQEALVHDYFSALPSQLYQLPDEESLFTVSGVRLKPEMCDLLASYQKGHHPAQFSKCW
T5 sequence (P49336 whole entry): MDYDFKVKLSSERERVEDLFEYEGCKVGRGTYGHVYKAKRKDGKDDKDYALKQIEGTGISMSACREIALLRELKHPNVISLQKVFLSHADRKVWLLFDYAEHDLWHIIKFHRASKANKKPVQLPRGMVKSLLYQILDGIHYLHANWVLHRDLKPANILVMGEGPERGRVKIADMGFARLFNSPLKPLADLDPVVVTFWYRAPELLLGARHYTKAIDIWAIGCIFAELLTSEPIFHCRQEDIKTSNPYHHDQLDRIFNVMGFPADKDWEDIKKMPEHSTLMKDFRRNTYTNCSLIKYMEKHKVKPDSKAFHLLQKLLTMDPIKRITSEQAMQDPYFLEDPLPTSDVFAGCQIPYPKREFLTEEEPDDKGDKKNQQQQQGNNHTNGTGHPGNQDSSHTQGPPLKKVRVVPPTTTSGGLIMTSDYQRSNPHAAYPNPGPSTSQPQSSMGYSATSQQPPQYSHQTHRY
T5 sequence (P24863 whole entry partner): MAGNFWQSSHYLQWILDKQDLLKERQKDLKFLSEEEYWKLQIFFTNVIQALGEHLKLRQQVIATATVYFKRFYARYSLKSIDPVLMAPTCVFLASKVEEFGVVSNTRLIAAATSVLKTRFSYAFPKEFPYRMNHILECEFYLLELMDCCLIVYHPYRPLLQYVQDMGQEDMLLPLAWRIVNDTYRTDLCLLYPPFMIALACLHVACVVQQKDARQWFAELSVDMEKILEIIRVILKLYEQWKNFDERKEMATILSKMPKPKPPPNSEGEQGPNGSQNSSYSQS

**Q.** For `CN1CCN(C(=O)c2ccc3cc(CCNc4ncnc5ccc(C#N)cc45)ccc3c2)CC1` [Senexin B, reference compound], which IC50 (CDK9_CycK; [1]) is on record?
**A.** Its IC50 is 5.16 µM.

**Q.** What about the “Hill Slope” value (CDK9_CycK; slope of the IC50 fit) of the same compound?
**A.** Its value is -0.6.

**Q.** What about the “Hill Slope” value (CDK19_CycC) of the same compound?
**A.** The value was -0.53.

**Q.** And the IC50 (CDK4_CycD3; [1])?
**A.** The IC50 was over 10 µM.

**Q.** And the “Hill Slope” value (CDK4_CycD3; slope of the IC50 fit)?
**A.** The value was -0.51.

**Q.** And the IC50 (CDK5_p35NCK; [1])?
**A.** The IC50 was over 10 µM.

**Q.** What about the “Hill Slope” value (CDK5_p35NCK; slope of the IC50 fit) of the same compound?
**A.** Its value is -0.43.

**Q.** What about the IC50 (CDK8_CycC; [2]) of the same compound?
**A.** Its IC50 is 165 nM.

**Q.** What about the “Hill Slope” value (CDK8_CycC; slope of the IC50 fit) of the same compound?
**A.** The value was -0.56.

**Q.** What about the IC50 (CDK4_CycD1; [1]) of the same compound?
**A.** Its IC50 is over 10 µM.

**Q.** What about the “Hill Slope” value (CDK4_CycD1; slope of the IC50 fit) of the same compound?
**A.** Its value is -0.51.

**Q.** And the IC50 (CDK15_CycA2; [1])?
**A.** The IC50 was over 10 µM.

**Q.** And the “Hill Slope” value (CDK15_CycA2; slope of the IC50 fit)?
**A.** Its value is -0.78.

**Q.** What about the IC50 (CDK18_CycY; [1]) of the same compound?
**A.** The IC50 was over 10 µM.

**Q.** What about the “Hill Slope” value (CDK18_CycY; slope of the IC50 fit) of the same compound?
**A.** Its value is -0.39.

**Q.** And the “Hill Slope” value (CDK3_CycC)?
**A.** Its value is -0.01.

**Q.** And the “Hill Slope” value (CDK12_CycK)?
**A.** Its value is -0.18.

**Q.** And the IC50 (CDK10_CycQ; [1])?
**A.** Its IC50 is over 10 µM.

**Q.** And the “Hill Slope” value (CDK10_CycQ; slope of the IC50 fit)?
**A.** The value was -0.47.

**Q.** What about the “Hill Slope” value (CDK17_p35NCK) of the same compound?
**A.** The value was -0.16.

**Q.** And the IC50 (CDK3_CycE1; [2])?
**A.** The IC50 was over 10 µM.

**Q.** What about the “Hill Slope” value (CDK3_CycE1; slope of the IC50 fit) of the same compound?
**A.** Its value is -0.36.

**Q.** And the “Hill Slope” value (CDK13_CycK)?
**A.** Its value is -0.12.

**Q.** What about the IC50 (CDK9_CycT1; [1]) of the same compound?
**A.** The IC50 was 9.43 µM.

**Q.** And the “Hill Slope” value (CDK9_CycT1; slope of the IC50 fit)?
**A.** Its value is -0.82.

**Q.** And the IC50 (CDK20_CycH; [1])?
**A.** The IC50 was over 10 µM.

**Q.** What about the “Hill Slope” value (CDK20_CycH; slope of the IC50 fit) of the same compound?
**A.** Its value is -0.32.

**Q.** And the IC50 (CDK14_CycY; [1])?
**A.** The IC50 was over 10 µM.

**Q.** What about the “Hill Slope” value (CDK14_CycY; slope of the IC50 fit) of the same compound?
**A.** Its value is -0.57.

**Q.** What about the IC50 (CDK2_CycA2; [2]) of the same compound?
**A.** The IC50 was over 10 µM.

**Q.** And the “Hill Slope” value (CDK2_CycA2; slope of the IC50 fit)?
**A.** Its value is -0.76.

**Q.** What about the IC50 (CDK16_CycY; [1]) of the same compound?
**A.** Its IC50 is over 10 µM.

**Q.** What about the “Hill Slope” value (CDK16_CycY; slope of the IC50 fit) of the same compound?
**A.** The value was -0.95.

**Q.** And the IC50 (CDK7_CycH_MAT1; [1])?
**A.** Its IC50 is over 10 µM.

**Q.** What about the “Hill Slope” value (CDK7_CycH_MAT1; slope of the IC50 fit) of the same compound?
**A.** The value was -0.55.

**Q.** What about the “Hill Slope” value (CDK1_CycA2) of the same compound?
**A.** The value was -0.17.

**Q.** What about the “Hill Slope” value (CDK1_CycB1) of the same compound?
**A.** Its value is -0.12.

**Q.** And the IC50 (CDK6_CycD2; [1])?
**A.** The IC50 was over 10 µM.

**Q.** What about the “Hill Slope” value (CDK6_CycD2; slope of the IC50 fit) of the same compound?
**A.** The value was -0.36.

**Q.** And the IC50 (CDK20_CycT1; [1])?
**A.** Its IC50 is over 10 µM.

**Q.** What about the “Hill Slope” value (CDK20_CycT1; slope of the IC50 fit) of the same compound?
**A.** Its value is -0.45.

**Q.** What about the IC50 (CDK6_CycD3; [1]) of the same compound?
**A.** The IC50 was over 10 µM.

**Q.** And the “Hill Slope” value (CDK6_CycD3; slope of the IC50 fit)?
**A.** Its value is -0.32.

**Q.** And the IC50 (CDK5_p25NCK; [1])?
**A.** The IC50 was over 10 µM.

**Q.** And the “Hill Slope” value (CDK5_p25NCK; slope of the IC50 fit)?
**A.** Its value is -0.24.

**Q.** What about the IC50 (CDK11B 357-795_CycK; [1]) of the same compound?
**A.** The IC50 was over 10 µM.

**Q.** What about the “Hill Slope” value (CDK11B 357-795_CycK; slope of the IC50 fit) of the same compound?
**A.** The value was -0.19.

**Q.** And the “Hill Slope” value (CDK2_CycD1)?
**A.** Its value is -0.18.

**Q.** What about the IC50 (CDK1_CycE1; [2]) of the same compound?
**A.** Its IC50 is over 10 µM.

**Q.** And the “Hill Slope” value (CDK1_CycE1; slope of the IC50 fit)?
**A.** The value was -0.4.

**Q.** And the IC50 (CDK2_CycE1; [2])?
**A.** Its IC50 is over 10 µM.

**Q.** What about the “Hill Slope” value (CDK2_CycE1; slope of the IC50 fit) of the same compound?
**A.** Its value is -0.46.

**Q.** And the IC50 (CDK4_CycD2; [1])?
**A.** The IC50 was over 10 µM.

**Q.** What about the “Hill Slope” value (CDK4_CycD2; slope of the IC50 fit) of the same compound?
**A.** Its value is -0.64.

**Q.** And the IC50 (CDK6_CycD1; [1])?
**A.** The IC50 was over 10 µM.

**Q.** What about the “Hill Slope” value (CDK6_CycD1; slope of the IC50 fit) of the same compound?
**A.** Its value is -0.17.
